From patent US8772309B2, “Pharmaceutical formulation of apomorphine for buccal administration” (Amarin Pharmaceuticals Ireland Limited, priority 2005, dated 2014)

Legend:
[1] = tested on: "on-off" fluctuations in Parkinson's disease; details: sublingual administration, patients responsive to subcutaneous apomorphine; cited from earlier work
[2] = Ionisation of apomorphine (pKa, un-ionised proportion against pH); assay type: physicochemical
Excerpt: For optimal buccal absorption the apomorphine used should ideally be un-ionised at physiological pH.
If the pH of the product is adjusted to about 8.0, approximately 10% of the apomorphine becomes un-ionised and thus available for absorption. The pH-dependent degree of ionisation of the drug is maintained by a dynamic equilibrium. As un-ionised drug is removed by absorption, more ionised drug becomes un-ionised in order to restore the equilibrium. As a result there is always a sufficient amount of un-ionised drug generated that can be absorbed rapidly.

Proportion of apomorphine un-ionised ([2]; pH 3.5): negligible | Proportion of apomorphine un-ionised ([2]; pH adjusted to about 8.0): approximately 10%
Structure (SMILES): CN1CCc2cccc3c2[C@H]1Cc1ccc(O)c(O)c1-3 [apomorphine]
Mean time to onset of effect [1]: approximately 30 minutes
